Results: patent publication US9493426B2, “Quinazolinone derivatives useful as FGFR kinase modulators” (priority 2013, dated 2016)

How the values were obtained:
FGFR1 = target: T1, FGFR1 (Homo sapiens, UniProt P11362); test: Enzyme binding assay (KINOMEscan) FGFR1; conditions: FGFR1_pKd, pKd = -log Kd (M)
T1 construct: purchased DiscoveRx Corporation
Method: (§1) Enzyme Binding Assays (KINOMEscan®)
(§2) Kinase enzyme binding affinities of compounds disclosed herein were determined using the KINOMEscan® technology performed by DiscoveRx Corporation, San Diego, Calif., USA (www.kinomescan.com).

FGFR2 = target: T2, FGFR2 (Homo sapiens, UniProt P21802); test: Enzyme binding assay (KINOMEscan) FGFR2; conditions: pKd = -log Kd (M), read-out: FGFR2_pKd (converted)
T2 construct: purchased DiscoveRx Corporation
T2 sequence (P21802 22-821): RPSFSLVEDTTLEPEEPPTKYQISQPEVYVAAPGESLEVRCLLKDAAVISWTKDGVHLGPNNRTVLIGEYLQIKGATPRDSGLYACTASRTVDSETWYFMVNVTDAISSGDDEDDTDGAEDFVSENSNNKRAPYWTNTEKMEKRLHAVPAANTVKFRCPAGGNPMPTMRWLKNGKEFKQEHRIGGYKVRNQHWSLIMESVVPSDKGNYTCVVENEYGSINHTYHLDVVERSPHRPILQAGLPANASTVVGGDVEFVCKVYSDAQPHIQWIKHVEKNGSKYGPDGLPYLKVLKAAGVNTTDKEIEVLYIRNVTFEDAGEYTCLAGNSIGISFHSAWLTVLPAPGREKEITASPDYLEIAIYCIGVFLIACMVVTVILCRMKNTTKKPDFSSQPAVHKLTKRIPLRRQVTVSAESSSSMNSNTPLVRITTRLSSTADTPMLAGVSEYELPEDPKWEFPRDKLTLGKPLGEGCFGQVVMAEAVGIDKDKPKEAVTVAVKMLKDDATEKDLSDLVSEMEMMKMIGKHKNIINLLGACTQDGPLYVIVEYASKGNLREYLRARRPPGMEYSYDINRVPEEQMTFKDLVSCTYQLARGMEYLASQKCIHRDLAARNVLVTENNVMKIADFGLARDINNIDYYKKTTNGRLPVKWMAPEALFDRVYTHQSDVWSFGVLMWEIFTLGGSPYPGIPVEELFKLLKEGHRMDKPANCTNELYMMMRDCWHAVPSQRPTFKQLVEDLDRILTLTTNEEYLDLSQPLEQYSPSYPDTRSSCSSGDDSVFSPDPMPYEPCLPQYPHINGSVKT
Method: as §1, §2

FGFR3 = target: T3, FGFR3 (Homo sapiens, UniProt P22607); test: Enzyme binding assay (KINOMEscan) FGFR3; conditions: pKd = -log Kd (M), read-out: FGFR3_pKd (converted)
T3 construct: purchased DiscoveRx Corporation
T3 sequence (P22607 23-806): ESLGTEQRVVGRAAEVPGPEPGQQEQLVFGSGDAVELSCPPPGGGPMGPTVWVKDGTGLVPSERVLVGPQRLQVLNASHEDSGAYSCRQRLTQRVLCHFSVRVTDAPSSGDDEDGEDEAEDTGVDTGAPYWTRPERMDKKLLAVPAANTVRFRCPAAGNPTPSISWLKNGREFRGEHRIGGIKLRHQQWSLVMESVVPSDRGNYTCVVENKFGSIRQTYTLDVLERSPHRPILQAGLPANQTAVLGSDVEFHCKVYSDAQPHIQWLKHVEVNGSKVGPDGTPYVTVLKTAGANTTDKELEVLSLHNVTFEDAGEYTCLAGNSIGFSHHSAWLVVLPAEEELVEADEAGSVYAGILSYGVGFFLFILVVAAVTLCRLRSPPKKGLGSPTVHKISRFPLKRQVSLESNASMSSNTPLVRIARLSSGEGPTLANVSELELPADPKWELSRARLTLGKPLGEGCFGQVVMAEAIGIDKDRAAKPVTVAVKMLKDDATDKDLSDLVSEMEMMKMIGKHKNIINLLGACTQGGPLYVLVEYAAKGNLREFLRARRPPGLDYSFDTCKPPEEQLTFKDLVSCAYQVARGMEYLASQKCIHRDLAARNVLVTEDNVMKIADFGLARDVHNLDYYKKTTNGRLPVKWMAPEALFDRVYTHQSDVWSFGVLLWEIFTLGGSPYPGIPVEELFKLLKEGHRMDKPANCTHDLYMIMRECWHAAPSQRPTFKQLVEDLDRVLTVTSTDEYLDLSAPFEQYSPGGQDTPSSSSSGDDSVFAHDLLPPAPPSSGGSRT
Method: as §1, §2

FGFR4 = target: T4, FGFR4 (Homo sapiens, UniProt P22455); test: Enzyme binding assay (KINOMEscan) FGFR4; conditions: pKd = -log Kd (M), read-out: FGFR4_pKd (converted)
T4 construct: purchased DiscoveRx Corporation
T4 sequence (P22455 22-802): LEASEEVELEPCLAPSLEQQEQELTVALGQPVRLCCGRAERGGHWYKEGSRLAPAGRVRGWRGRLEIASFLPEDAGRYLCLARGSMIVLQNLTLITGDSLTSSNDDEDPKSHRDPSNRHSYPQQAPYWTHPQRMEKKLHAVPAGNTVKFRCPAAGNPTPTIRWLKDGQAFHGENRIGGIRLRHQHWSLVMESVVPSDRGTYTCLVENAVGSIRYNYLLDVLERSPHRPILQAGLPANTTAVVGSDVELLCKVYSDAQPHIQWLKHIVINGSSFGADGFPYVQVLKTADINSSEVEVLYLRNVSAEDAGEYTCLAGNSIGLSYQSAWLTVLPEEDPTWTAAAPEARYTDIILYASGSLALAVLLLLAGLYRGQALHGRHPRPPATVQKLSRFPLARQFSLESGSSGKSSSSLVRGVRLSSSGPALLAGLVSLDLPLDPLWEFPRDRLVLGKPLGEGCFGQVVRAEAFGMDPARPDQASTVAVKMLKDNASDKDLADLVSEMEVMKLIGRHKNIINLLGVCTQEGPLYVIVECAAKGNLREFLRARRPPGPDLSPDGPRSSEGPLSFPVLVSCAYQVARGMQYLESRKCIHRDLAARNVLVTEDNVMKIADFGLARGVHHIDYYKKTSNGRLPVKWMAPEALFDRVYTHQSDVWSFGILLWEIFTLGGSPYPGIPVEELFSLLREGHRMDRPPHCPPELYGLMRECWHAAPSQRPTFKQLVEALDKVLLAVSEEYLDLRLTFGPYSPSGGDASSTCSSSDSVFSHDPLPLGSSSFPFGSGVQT
Method: as §1, §2

VEGFR2 = target: T5, VEGFR2 (Homo sapiens, UniProt P35968); test: Enzyme binding assay (KINOMEscan) VEGFR2; conditions: pKd = -log Kd (M), read-out: VEGFR2_pKd (converted)
T5 construct: purchased DiscoveRx Corporation
T5 sequence (P35968 20-1356): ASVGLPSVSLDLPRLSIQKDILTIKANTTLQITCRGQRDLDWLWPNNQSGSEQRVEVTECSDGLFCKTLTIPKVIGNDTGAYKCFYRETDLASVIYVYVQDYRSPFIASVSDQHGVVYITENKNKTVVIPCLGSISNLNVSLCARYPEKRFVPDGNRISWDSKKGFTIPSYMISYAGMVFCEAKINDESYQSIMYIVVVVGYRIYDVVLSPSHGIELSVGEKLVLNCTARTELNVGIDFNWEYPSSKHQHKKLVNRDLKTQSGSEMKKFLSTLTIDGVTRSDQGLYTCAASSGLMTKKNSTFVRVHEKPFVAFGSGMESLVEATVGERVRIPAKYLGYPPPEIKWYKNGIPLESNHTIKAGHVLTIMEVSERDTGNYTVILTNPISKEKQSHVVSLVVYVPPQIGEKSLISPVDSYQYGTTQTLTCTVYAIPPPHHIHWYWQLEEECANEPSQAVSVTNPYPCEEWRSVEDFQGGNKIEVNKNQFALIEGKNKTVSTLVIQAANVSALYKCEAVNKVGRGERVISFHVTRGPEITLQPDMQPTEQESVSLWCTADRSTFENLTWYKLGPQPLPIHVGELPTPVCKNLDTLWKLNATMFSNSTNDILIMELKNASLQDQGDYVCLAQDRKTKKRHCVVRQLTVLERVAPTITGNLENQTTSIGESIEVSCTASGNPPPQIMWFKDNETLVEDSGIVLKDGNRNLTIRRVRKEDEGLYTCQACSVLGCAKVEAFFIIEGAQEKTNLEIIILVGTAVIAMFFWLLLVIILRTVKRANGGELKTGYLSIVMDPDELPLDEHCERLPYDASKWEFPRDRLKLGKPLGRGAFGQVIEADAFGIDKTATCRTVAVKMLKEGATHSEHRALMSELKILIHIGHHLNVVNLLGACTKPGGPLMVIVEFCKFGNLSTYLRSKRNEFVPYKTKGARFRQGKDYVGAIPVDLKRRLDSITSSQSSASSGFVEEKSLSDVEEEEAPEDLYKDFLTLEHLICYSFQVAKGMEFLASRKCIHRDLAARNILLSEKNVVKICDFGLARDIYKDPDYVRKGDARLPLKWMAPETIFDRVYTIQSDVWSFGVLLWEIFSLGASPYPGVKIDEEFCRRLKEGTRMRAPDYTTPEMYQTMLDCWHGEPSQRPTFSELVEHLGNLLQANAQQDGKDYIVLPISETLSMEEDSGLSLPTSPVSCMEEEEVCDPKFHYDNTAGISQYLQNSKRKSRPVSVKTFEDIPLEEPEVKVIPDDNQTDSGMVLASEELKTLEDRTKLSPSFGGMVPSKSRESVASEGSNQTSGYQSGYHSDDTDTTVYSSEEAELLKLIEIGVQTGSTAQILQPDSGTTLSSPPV
Method: as §1, §2

T1 sequence (P11362 22-822): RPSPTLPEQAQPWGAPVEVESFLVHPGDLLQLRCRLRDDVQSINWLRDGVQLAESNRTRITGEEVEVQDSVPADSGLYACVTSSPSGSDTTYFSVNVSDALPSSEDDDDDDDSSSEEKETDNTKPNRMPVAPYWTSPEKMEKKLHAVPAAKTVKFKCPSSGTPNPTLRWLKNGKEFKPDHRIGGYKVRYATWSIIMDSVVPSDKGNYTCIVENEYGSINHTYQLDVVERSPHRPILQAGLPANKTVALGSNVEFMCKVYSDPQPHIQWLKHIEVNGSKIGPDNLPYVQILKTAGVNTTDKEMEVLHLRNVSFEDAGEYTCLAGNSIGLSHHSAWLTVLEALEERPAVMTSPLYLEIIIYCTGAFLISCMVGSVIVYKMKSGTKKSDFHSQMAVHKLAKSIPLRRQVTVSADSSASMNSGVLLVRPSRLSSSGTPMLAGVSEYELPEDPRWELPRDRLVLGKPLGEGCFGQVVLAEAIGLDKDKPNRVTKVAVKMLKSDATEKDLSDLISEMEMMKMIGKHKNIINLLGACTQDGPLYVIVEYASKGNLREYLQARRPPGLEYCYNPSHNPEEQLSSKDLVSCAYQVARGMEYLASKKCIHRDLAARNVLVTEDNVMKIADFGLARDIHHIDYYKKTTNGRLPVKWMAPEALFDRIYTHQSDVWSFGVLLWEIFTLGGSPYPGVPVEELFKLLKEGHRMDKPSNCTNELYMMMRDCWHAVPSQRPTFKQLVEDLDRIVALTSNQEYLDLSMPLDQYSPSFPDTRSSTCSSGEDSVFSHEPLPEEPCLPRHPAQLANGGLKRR

SMILES	melting point [°C]	Kd (FGFR1) [M]	Kd (FGFR2) [M]	Kd (FGFR3) [M]	Kd (FGFR4) [M]	Kd (VEGFR2) [M]
COc1cc(OC)c(F)c(N(Cc2nccn2S(=O)(=O)N(C)C)c2ccc3ncn(C4CCN(C(=O)OC(C)(C)C)CC4)c(=O)c3c2)c1F	168	–	–	–	–	–
COc1cc(OC)c(F)c(N(CCCNC(C)C)c2ccc3ncn(C4CCNCC4)c(=O)c3c2)c1	140	–	–	–	–	–
COc1cc(OC)cc(N(CCCNC(C)C)c2ccc3ncn(C4CCNCC4)c(=O)c3c2)c1	255	–	–	–	–	–
COc1cc(OC)c(F)c(N(CCO)c2ccc3ncn(-c4cccnc4)c(=O)c3c2)c1F [Compound 29]	112	1.58e-08	3.16e-09	6.31e-09	5.01e-08	6.31e-07
COc1cc(OC)c(F)c(N(CCO)c2ccc3ncn(-c4cccnc4)c(=O)c3c2)c1 [Compound 30]	186	2.51e-07	3.98e-08	6.31e-08	5.01e-07	> 3.16e-06
COc1cc(OC)cc(N(CCO)c2ccc3ncn(-c4cccnc4)c(=O)c3c2)c1 [Compound 31]	168	–	5.01e-07	–	> 3.16e-06	> 3.16e-06
COc1cc(OC)c(F)c(N(CCNC(C)C)c2ccc3ncn(-c4cccnc4)c(=O)c3c2)c1 [Compound 33]	133	5.01e-09	1.58e-08	7.94e-09	2.51e-08	1.58e-06
COc1cc(OC)cc(N(CCNC(C)C)c2ccc3ncn(-c4cccnc4)c(=O)c3c2)c1 [Compound 34]	136	6.31e-08	5.01e-08	1.26e-07	6.31e-07	> 3.16e-06
COc1cc(OC)c(F)c(N(Cc2nccn2S(=O)(=O)N(C)C)c2ccc3ncn(-c4cccnc4)c(=O)c3c2)c1F [Compound 35]	128	5.01e-08	1.58e-08	3.98e-08	1.26e-07	1.26e-06
COc1cc(OC)c(F)c(N(Cc2nccn2S(=O)(=O)N(C)C)c2ccc3ncn(-c4cccnc4)c(=O)c3c2)c1 [Compound 36]	108	1.58e-07	1e-07	2.51e-07	1.26e-06	> 3.16e-06
COc1cc(OC)c(F)c(N(CCO)c2ccc3ncn(-c4ccncc4)c(=O)c3c2)c1F [Compound 37]	198	1.58e-08	2.51e-09	5.01e-09	5.01e-08	–
COc1cc(OC)c(F)c(N(CCO)c2ccc3ncn(-c4ccncc4)c(=O)c3c2)c1 [Compound 38]	209	1e-07	2e-08	3.16e-08	1.58e-07	> 3.16e-06
COc1cc(OC)c(F)c(N(Cc2nccn2S(=O)(=O)N(C)C)c2ccc3ncn(-c4ccncc4)c(=O)c3c2)c1F [Compound 40]	139	3.98e-08	3.16e-08	6.31e-08	2.51e-07	1.58e-06
COc1cc(OC)c(F)c(N(Cc2nccn2S(=O)(=O)N(C)C)c2ccc3ncn(-c4ccncc4)c(=O)c3c2)c1 [Compound 41]	–	1e-07	3.16e-08	1.26e-07	7.94e-07	> 3.16e-06
COc1cc(OC)c(F)c(N(Cc2ncc[nH]2)c2ccc3ncn(C4CCNCC4)c(=O)c3c2)c1F [Compound 43]	223	1.58e-08	7.94e-09	2e-08	5.01e-08	> 3.16e-06
COc1cc(OC)cc(N(Cc2ncc[nH]2)c2ccc3ncn(C4CCNCC4)c(=O)c3c2)c1 [Compound 44]	220	3.98e-07	1.58e-07	3.98e-07	> 3.16e-06	> 3.16e-06

SMILES	melting point [°C]	Kd (FGFR1) [M]	Kd (FGFR2) [M]	Kd (FGFR3) [M]	Kd (FGFR4) [M]	Kd (VEGFR2) [M]
COc1cc(OC)c(F)c(N(Cc2ncc[nH]2)c2ccc3ncn(C4CCNCC4)c(=O)c3c2)c1 [Compound 45]	260	7.94e-08	3.16e-08	7.94e-08	5.01e-07	> 3.16e-06
COc1cc(OC)c(F)c(N(CCO)c2ccc3ncn(C4CCNCC4)c(=O)c3c2)c1F [Compound 46]	186	1e-07	3.98e-08	1e-07	7.94e-07	> 3.16e-06
COc1cc(OC)cc(N(CCO)c2ccc3ncn(C4CCNCC4)c(=O)c3c2)c1 [Compound 47]	165	> 3.16e-06	> 3.16e-06	> 3.16e-06	> 3.16e-06	> 3.16e-06
COc1cc(OC)c(F)c(N(CCO)c2ccc3ncn(C4CCNCC4)c(=O)c3c2)c1 [Compound 48]	173	1.26e-06	6.31e-07	7.94e-07	> 3.16e-06	> 3.16e-06
CNCCN(c1ccc2ncn(C3CCNCC3)c(=O)c2c1)c1c(F)c(OC)cc(OC)c1F [Compound 57]	–	3.16e-08	3.98e-08	6.31e-08	1.58e-07	2e-06
CNCCN(c1cc(OC)cc(OC)c1)c1ccc2ncn(C3CCNCC3)c(=O)c2c1 [Compound 59]	139	–	> 3.16e-06	> 3.16e-06	> 3.16e-06	> 3.16e-06
COc1cc(OC)c(F)c(N(CCCNC(C)C)c2ccc3ncn(C4CCNCC4)c(=O)c3c2)c1F [Compound 60]	126	6.31e-09	5.01e-09	1.26e-08	3.98e-08	–
COc1cc(OC)c(F)c(N(CCCNC(C)C)c2ccc3ncn(C4CCNCC4)c(=O)c3c2)c1 [Compound 61′]	–	5.01e-08	2e-08	6.31e-08	2e-07	> 3.16e-06
COc1cc(OC)cc(N(CCO)c2ccc3ncn(C4CCOCC4)c(=O)c3c2)c1 [Compound 64]	204	6.31e-07	3.98e-07	–	> 3.16e-06	> 3.16e-06
COc1cc(OC)c(F)c(N(CCCO)c2ccc3ncn(C4CCOCC4)c(=O)c3c2)c1 [Compound 65]	164	2e-07	5.01e-08	7.94e-08	–	> 3.16e-06
COc1cc(OC)cc(N(CCCO)c2ccc3ncn(C4CCOCC4)c(=O)c3c2)c1 [Compound 66]	–	1.26e-06	5.01e-07	1.26e-06	> 3.16e-06	> 3.16e-06
COc1cc(OC)cc(N(Cc2nccn2S(=O)(=O)N(C)C)c2ccc3ncn(C4CCOCC4)c(=O)c3c2)c1 [Compound 68]	–	1.26e-06	–	> 3.16e-06	> 3.16e-06	> 3.16e-06
COc1cc(OC)cc(N(Cc2ncc[nH]2)c2ccc3ncn(C4CCOCC4)c(=O)c3c2)c1 [Compound 69]	260	1.58e-07	5.01e-08	1.58e-07	–	> 3.16e-06
COc1cc(OC)c(F)c(N(CCCNC(C)C)c2ccc3ncn(C4CCOCC4)c(=O)c3c2)c1 [Compound 72]	–	7.94e-09	1e-08	1.58e-08	5.01e-08	2.51e-06
COc1cc(OC)cc(N(CCCNC(C)C)c2ccc3ncn(C4CCOCC4)c(=O)c3c2)c1 [Compound 73′]	–	1.26e-07	6.31e-08	2e-07	1.26e-06	–
